Values after ≈ are worked out from the molar mass of the structure shown. Values belong to the compound of their own block, whether it stands above or below them. Numbered stars: 1 amine (or outer) side, 2 acyl side, 3 side chain; on linkers, the order of the positions; unused ones are H or OH. Square brackets hold non-standard residues; d marks the D form. Peptide text beside a SMILES is read from it. * marks the point of attachment. X2 = CCC(=O)C[C@H](O)C[C@@H](C)C[C@H](N[*:1])C(=O)[*:2]; Leu(3R-OH) = CC(C)[C@@H](O)[C@H](N)C(=O)O; NH((S)CH(Me)CH2NMe2) = C[C@@H](CN(C)C)N*; Pro(4S-Me) = C[C@@H]1CN[C@H](C(=O)O)C1; X1 = CC[C@@H](C)/C=C/C(=O)*; Aib = CC(C)(N)C(=O)O; βAla = NCCC(=O)O
How the values were obtained:
[1] = test system: NCI-H292; assay: Anticancer activity against human NCI-H292 cells assessed as reduction in cell proliferation incubated for 48 hrs by Calcein AM and Pluronic F-127 staining based fluorescence plate reader analysis; format: functional; details: NCI-H292, 48 h
[2] = Inhibition of mitochondrial F0F1-ATPase (unknown origin); parameters: species or system Homo sapiens
[3] = test system: HL-60; assay: Anticancer activity against human HL-60 cells assessed inhibition of cell proliferation incubated for 48 hrs by MTT assay; format: functional, cell-based; details: HL-60, 48 h
[4] = Inhibition of mouse liver mitochondrial ATP synthase by microplate immuno-capture ELISA assay; format: mitochondria, Mitochondria
[5] = test system: NCI-H292; assay: Antiproliferative activity against human NCI-H292 cells assessed as reduction in cell viability by MTT assay; format: functional, cell-based
[6] = test system: HeLa; assay: Antiproliferative activity against human HeLa cells assessed as reduction in cell viability by MTT assay; format: functional, cell-based
[7] = Inhibition of bovine heart mitochondrial F0F1-ATPase assessed as reduction in ATP synthesis by fluorescence assay; format: mitochondria, Bos taurus, Mitochondria
[8] = Inhibition of bovine heart mitochondrial F0F1-ATPase assessed as decrease in rate of ATP hydrolysis by fluorescence assay; format: mitochondria, Bos taurus, Mitochondria
[9] = test system: T47D; assay: Antiproliferative activity against human T47D cells assessed as reduction in cell viability incubated for 48 hrs by MTT assay; format: functional, cell-based
[10] = test system: MDA-MB-231; assay: Antiproliferative activity against human MDA-MB-231 cells assessed as reduction in cell viability incubated for 48 hrs by MTT assay; format: functional, cell-based; details: MDA-MB-231, 48 h
[11] = test system: MCF7; assay: Antiproliferative activity against human MCF7 cells assessed as reduction in cell viability incubated for 48 hrs by MTT assay; format: functional, cell-based; details: MCF7, 48 h
[12] = test system: HL-60; assay: Antiproliferative activity against human HL-60 cells assessed as reduction in cell viability incubated for 48 hrs by MTT assay; format: functional, cell-based; details: HL-60, 48 h
[13] = test system: SMMC-7721; assay: Antiproliferative activity against human SMMC-7721 cells assessed as reduction in cell viability incubated for 48 hrs by MTT assay; format: functional, cell-based; details: SMMC-7721, 48 h
[14] = test system: A549; assay: Antiproliferative activity against human A549 cells assessed as reduction in cell viability incubated for 48 hrs by MTT assay; format: functional, cell-based; details: A549, 48 h
[15] = test system: SW480; assay: Antiproliferative activity against human SW480 cells assessed as reduction in cell viability incubated for 48 hrs by MTT assay; format: functional, cell-based; details: SW480, 48 h
[16] = Cytotoxicity against mouse L929 cells assessed as reduction in cell viability; format: toxicity, cell-based
[17] = test system: GBM; assay: Anticancer activity against human GBM cells carrying high-throughput GBM sphere assessed as reduction in cell viability incubated for 96 hrs by Cell-Titer-Glo assay; format: functional, cell-based
[18] = Inhibition of yeast mitochondrial F0F1-ATPase assessed as inhibition constant measured after 20 mins in presence of NADH and ATP by microplate reader analysis; format: mitochondria, Saccharomyces cerevisiae, Mitochondria
[19] = test system: MCF7; assay: Antitumor activity against human MCF7 cells assessed as reduction in cell viability incubated for 24 hrs by MTT assay; format: functional, cell-based; details: MCF7, 24 h
[20] = Inhibition of bovine heart mitochondrial F0F1-ATP synthase F0 domain assessed as reduction in rate of NADH oxidation for 30 mins by colorimetric assay; format: mitochondria, Bos taurus, Mitochondria
[21] = test system: DU-145; assay: Antiproliferative activity against human DU-145 cells assessed as reduction in cell viability incubated for 3 days by rhodanile-blue dye based microplate reader analysis; format: functional; details: DU-145, 72 h
[22] = test system: DU-145; assay: Antiproliferative activity against human DU-145 cells assessed as reduction in cell viability preincubated with PrSCs cells for 2 days followed by co-culture with DU-145 for 3 days by rhodanile-blue dye based microplate reader analysis; format: functional
[23] = Acute toxicity in mouse assessed as maximum tolerated dose; details: in vivo

SMILES: COC[C@@H](C[C@H]1O[C@@](O)([C@H](O)[C@@H]2C[C@H](OC)[C@@H](O)CC/C=C(C)/C=C/[C@@H](O[C@@H]3O[C@@H](C)[C@H](OC)[C@@H](O)[C@@H]3O)[C@H](C)/C=C(C)/C=C(C)/C=C(\C)C(=O)O2)[C@H](C)[C@@H](O)[C@H]1C)O[C@H]1C[C@](C)(O)[C@@H](O[C@H]2C[C@@H](OC)[C@H](O)[C@@H](C)O2)[C@H](C)O1
IC50 [1]: 32 nM
IC50 [2]: 700 nM

IC50 [3]: 100 nM
IC50 [4]: 3000 nM
SMILES: c1csc(-c2c3ccc(=[N+]4CCCCC4)cc-3oc3cc(N4CCCCC4)ccc23)c1

IC50 [5]: 91 nM
IC50 [6]: 240 nM
SMILES: COC[C@@H](C[C@H]1O[C@@](O)([C@H](O)[C@@H]2C[C@H](OC)[C@@H](O)CC/C=C(C)/C=C/[C@@H](O[C@@H]3O[C@@H](C)[C@H](OC)[C@@H](O)[C@@H]3OC(=O)CCC(=O)O)[C@H](C)/C=C(C)/C=C(C)/C=C(\C)C(=O)O2)[C@H](C)[C@@H](O)[C@H]1C)O[C@H]1C[C@](C)(O)[C@@H](O[C@H]2C[C@@H](OC)[C@H](O)[C@@H](C)O2)[C@H](C)O1

SMILES: CC[C@H]1O[C@@]2(C)[C@H](OC(C)=O)[C@@]1(C)O[C@@H](/C=C/C=C/C=C/c1oc(=O)cc(OC)c1C)[C@@H]2O
Ki [7]: 25 nM
Ki [8]: 120 nM
IC50 [9]: 890 nM
IC50 [10]: 5520 nM
IC50 [11]: 90 nM
IC50 [12]: 14700 nM
IC50 [13]: 10800 nM
IC50 [14]: 14700 nM
IC50 [15]: 22400 nM

SMILES: CCC[C@H](O)[C@@H](C)C(=O)NC/C=C\C[C@@H](C)[C@@H](O)[C@H](C)[C@@H](O)C/C=C\C[C@H](C)[C@H]1Cc2cc(OC)cc(O)c2C(=O)O1
IC50 [16]: > 1 µg/mL

SMILES: CC(C)[C@@H]1CC[C@@H](C)C[C@H]1OC(=O)Cn1c(-c2cccc(C(F)(F)F)c2)[n+](C)c2ccccc21
IC50 [17]: 470 nM

SMILES: COC[C@@H](C[C@H]1O[C@@](O)([C@@H]2OC(=O)/C(C)=C/C(C)=C/C(C)=C/[C@@H](C)[C@H](O[C@@H]3O[C@@H](C)[C@H](OC)[C@@H](O)[C@@H]3O)/C=C/C(C)=C/CC[C@H](O)[C@@H](OC)C[C@@H]2O)[C@H](C)[C@@H](O)[C@H]1C)O[C@H]1C[C@](C)(O)[C@@H](O[C@H]2C[C@@H](OC)[C@H](O)[C@@H](C)O2)[C@H](C)O1
Ki [18]: 17000 nM

IC50 [19]: 42700 nM
SMILES: O=C(Oc1cc(/C=C/c2ccc(O)cc2)cc(OC(=O)c2ccco2)c1)c1ccco1

SMILES: CCc1n(CC(=O)O[C@@H]2C[C@H](C)CC[C@H]2C(C)C)c2ccccc2[n+]1C
IC50 [17]: 150 nM

SMILES: CCC(=O)C[C@H](O)C[C@@H](C)C[C@H](NC(=O)[C@@H]1C[C@H](C)CN1C(=O)/C=C/[C@H](C)CC)C(=O)N[C@H](C(=O)NC(C)(C)C(=O)N[C@@H](CC(C)C)C(=O)N[C@@H](CC(C)C)C(=O)NC(C)(C)C(=O)NC(C)(C)C(=O)NCCC(=O)N[C@@H](C)CN(C)C)[C@H](O)C(C)C (X1-[Pro(4S-Me)][X2][Leu(3R-OH)][Aib]LL[Aib][Aib][βAla]-{NH((S)CH(Me)CH2NMe2)})
IC50 [20]: 2.8 µg/mL (≈ 2.3 µM)
IC50 [21]: > 1 µg/mL
IC50 [22]: 0.045 µg/mL (≈ 0.0369 µM)
MTD [23]: 2.5 mg/kg

— ChEMBL document CHEMBL5230122, “Natural products and other inhibitors of F1FO ATP synthase” (Eur J Med Chem, 2020)
